Measured values: patent US20250304625A1, “ARTICLES AND METHODS FOR INHIBITING METHIONINE AMINOPEPTIDASE ACTIVITY” (Vanderbilt University, priority 2022, published 2025)

What was measured:
cell lines = conditions: compared to other chelators (e.g. TPEN); cited from earlier work
TKPTS cells [1] = assay: TKPTS cell proliferation by CellTrace flow cytometry; assay type: cell-based, murine; conditions: Zng1 mutant cells compared to WT, 3 μM TPA, three days
Protocol: TKPTS cells were seeding at 2,000 to 4,000 cells per well of 24- or 12-well tissue culture treated multi-well plates and incubated overnight at 37° C. Cells were staining with CellTRACE violet (Invitrogen, C34557) as described by manufacturer's protocol. Briefly, CellTRACE solution was prepared in PBS at a 1:1,000 dilution, added to the cells, and cells were incubated for 20 min at 37° C. Cells were then washed two times in cell culture media supplemented with 7% FBS, and replaced with fresh cell culture media supplemented with desired chemical treatments (3 μM TPA, Sigma, 723134; 5 μg/ml TNP470, Sigma, T1455; or 50 nM Bengamide B, Santa cruz, sc-397521A). Stock solutions of drugs were prepared in ACS-grade DMSO (Fisher Scientific, D136). […] After three days of growth, cells were stained with MitoTracker far-red (Invitrogen, M22426; 1:2500 dilution for 20 min at 37° C.) and MitoSOX red (Molecular probes, M36008: 1,1000 for 20 min at 37° C.) following manufacture's protocols. Cells were washed with PBS, trypsinized, and transferred to Eppendorf tubes prior to fixation in 4% PFA (Alfa aesar, J61899). Cells were fixed for 20 min at room temperature, centrifuged at 200×g for 10 min and washed with PBS prior to resuspension in 300 μl FACS buffer (2% FBS, 0.02% sodium azide in PBS). All flow cytometry data were collected using a BD LSRII flow cytometer with FACSDIVA software and analyzed using FlowJo (FlowJo LLC). Samples were gated forward scatter height (FSC-H) by forward scatter area (FSC-A) and side scatter height (SSC-H) by side scatter area (SSC-A) to remove doublet populations. The singlet population was gated SSC-A by FSC-A to isolate live cells. The resulting cell population was then assessed for assay-specific fluorescent markers and the median fluorescence intensity (MFI) quantified.

TKPTS cells [2] = assay: Seahorse XF96 cell mitochondrial stress test (oxygen consumption rate); assay type: cell-based, murine; conditions: Zng1^−/− cells pre-treated with 3 μM TPA
Protocol: 8,000 WT or Zng1 mutant vehicle treated TKPTS cells or TKPTS cells serially passaged in 3 μM TPA (Sigma, 723134) were plated in individual wells of seahorse plates in complete DMEM F12 media described above. Cells were resuspended in mitochondria assay media (Seahorse Agilent pH 7.4 media+1 mM pyruvate+10 mM glucose+2 mM glutamine). No TKPTS cells were added to the four wells in the corners of the plate as a background control. For the mitochondrial stress test, the cartridge was sequentially loaded with oligomycin (15 μM), FCCP (15 μM), and rotenone/antimycin A (5 μM) (diluted in mitochondria assay media) for injection into the wells. To normalize across wells by cell density, the Seahorse plate was imaged using a BioTek Cytation 5. Oxygen consumption and extracellular acidification rates were collected using a Seahorse XFe96 Analyzer and analyzed using Wave Desktop software (Agilent Technologies).

zng1 transcript = assay: zng1 expression in whole zebrafish larvae (qPCR); assay type: in vivo; conditions: WT larvae, immersion, 20 μM TPEN vs ethanol vehicle
Protocol: For all experiments larval zebrafish were bred naturally and collected into embryo media and were maintained at 28° C. on a 14/10 h light/dark cycle for duration of experiments. For survival experiments, zebrafish larvae were split into even densities into 6 or 12 multi-well plates in 5 mL or 1 mL embryo media respectively at 3 dpf. Stock solutions of METAP2 inhibitor TNP-470 (Sigma, T1455) and METAP1/2 inhibitor Bengamide B (Santa cruz, sc-397521A) were prepared in ACS-grade DMSO (Fisher Scientific, D136) and TPEN (Sigma, P4413) was prepared in ethanol and stored at −20° C. TNP-470, Bengamide B, and/or TPEN were applied into embryo media as well as a DMSO and/or ethanol vehicle controls at 3 dpf. Zebrafish survival was monitored daily until 6 dpf and all moribund or dead animals were removed. […]
For RNA isolation from dissected mouse tissue, mice were humanely euthanized, tissues harvested and immediately flash frozen in liquid nitrogen and stored at −80C. […] Quantitative PCR was performed in duplicate-quadruplicate 25 μL reactions using 2× iQ SYBR Green SuperMix (BioRad, 1708882) run on an BioRad CFX96 Real-Time System instrument using gene-specific primers (zebrafish: P34-P39, mice: P40-P43, cell lines: 44-69, Table S5). Data were analyzed with the ΔΔCt method (Livak and Schmittgen, 2001) or presented as relative expression values.

Compound | cytotoxicity towards cell lines (cell lines) | proliferation (CellTrace dye retention) (TKPTS cells [1]) | basal and maximal respiration, ATP production, and proton leak (OCR) (TKPTS cells [2]) | zng1 transcript (zng1 transcript)
c1ccc(CN(Cc2ccccn2)Cc2ccccn2)nc1 [TPA, tris(2-pyridylmethyl)amine] | lower cytotoxicity | significantly slowed proliferation | significantly impaired | –
c1ccc(CN(CCN(Cc2ccccn2)Cc2ccccn2)Cc2ccccn2)nc1 [TPEN, N,N,N′,N′-Tetrakis(2-pyridylmethyl)ethylenediamine] | – | – | – | significant induction
